# Data taken from patent US7932246B2, “Histone deacetylase inhibitors” (Chroma Therapeutics Ltd., priority 2005, dated 2011).
# Counter-ions that a name gives are not always drawn.
# Columns and labels:
# [1] = test system: HUT; test: HUT cell inhibition assay (WST-1 cell viability); assay type: cell-based; conditions: HUT cells, 72-96 h, WST-1 assay, IC50 range
# Procedure: (§1) Cancer cell lines (U937 and HUT) growing in log phase were harvested and seeded at 1000-2000 cells/well (100 μl final volume) into 96-well tissue culture plates. Following 24 h of growth cells were treated with compound. Plates were then re-incubated for a further 72-96 h before a WST-1 cell viability assay was conducted according to the suppliers (Roche Applied Science) instructions.
# (§2) Data were expressed as a percentage inhibition of the control, measured in the absence of inhibitor, as follows:— % inhibition=100−[(S^i/S^o)×100] where S^i is the signal in the presence of inhibitor and S^o is the signal in the presence of DMSO.
# (§3) Dose response curves were generated from 8 concentrations (top final concentration 10 μM, with 3-fold dilutions), using 6 replicates.
# (§4) IC50 values were determined by non-linear regression analysis, after fitting the results to the equation for sigmoidal dose response with variable slope (% activity against log concentration of compound), using Graphpad Prism software.
# (§5) IC50 results were allocated to one of 3 ranges as follows: […]
# [2] = test system: U937; test: U937 cell inhibition assay (WST-1 cell viability); assay type: cell-based; conditions: Homo sapiens, U-937; U937 cells, 72-96 h, WST-1 assay, IC50 range
# Procedure: as §1, §2, §3, §4, §5
# [3] = test system: HeLa cells; test: HeLa cell inhibition assay (SRB cell viability); assay type: cell-based; conditions: Homo sapiens, HeLa, 72 h, IC50 range
# Procedure: HeLa cells growing in log phase were harvested and seeded at 1000 cells/well (200 μl final volume) into 96-well tissue culture plates. Following 24 h of cell growth cells were treated with compounds (final concentration of 20 μM). Plates were then re-incubated for a further 72 h before a sulphorhodamine B (SRB) cell viability assay was conducted according to Skehan 1990 J Natl Canc Inst 82, 1107-1112.
# as §2
# IC50 values were determined by non-linear regression analysis, after fitting the results of eight data points to the equation for sigmoidal dose response with variable slope (% activity against log concentration of compound), using Graphpad Prism software.
# as §5
# [4] = molecular target: histone deacetylase activity (HeLa nuclear extract); test: HDAC fluorescent activity assay (Biomol, Fluor de Lys substrate); assay type: biochemical; conditions: IC50 range
# Procedure: The ability of compounds to inhibit histone deacetylase activities was measured using the commercially available HDAC fluorescent activity assay from Biomol. In brief, the Fluor de Lys™ substrate, a lysine with an epsilon-amino acetylation, is incubated with the source of histone deacetylase activity (HeLa nuclear extract) in the presence or absence of inhibitor. Deacetylation of the substrate sensitises the substrate to Fluor de Lys™ developer, which generates a fluorophore.
# Data are expressed as a percentage of the control, measured in the absence of inhibitor, with background signal being subtracted from all samples, as follows:— % activity=[(S^i−B)/(S^o−B)]×100 where S^i is the signal in the presence of substrate, enzyme and inhibitor, S^o is the signal in the presence of substrate, enzyme and the vehicle in which the inhibitor is dissolved, and B is the background signal measured in the absence of enzyme.
# Histone deacetylase activity from crude nuclear extract derived from HeLa cells was used for screening. The preparation, purchased from 4C (Seneffe, Belgium), was prepared from HeLa cells harvested whilst in exponential growth phase. The nuclear extract is prepared according to Dignam JD1983 Nucl. Acid. […] The final buffer composition was 20 mM Hepes, 100 mM KCl, 0.2 mM EDTA, 0.5 mM DTT, 0.2 mM PMSF and 20% (v/v) glycerol.
IC50 [2] [nM],IC50 [3] [nM],IC50 [4] [nM],SMILES,IC50 [1] [nM]
331 to 3300,331 to 3300,< 100,"O=C(CCCCc1ccccc1)NC1C2CN(c3ncc(C(=O)NO)cn3)CC21 (stereo not shown) [Example 7, N-Hydroxy 2-[6-(5-phenylpentanoylamino)-3-azabicyclo[3.1.0]hex-3-yl]pyrimidine-5-carboxamide]",331 to 3300
331 to 3300,331 to 3300,< 100,"O=C(NO)c1cnc(N2CC3C(C2)C3NC(=O)C2(c3ccccc3)CC2)nc1 (stereo not shown) [Example 9, N-Hydroxy 2-(6-{[(1-phenylcyclopropyl)carbonyl]amino}-3-azabicyclo[3.1.0]hex-3-yl)pyrimidine-5-carboxamide]",331 to 3300
331 to 3300,331 to 3300,< 100,O=C(NO)c1cnc(N2CC3C(C2)C3NCc2ccc(C(F)(F)F)cc2)nc1 (stereo not shown) [Example 42],< 330
< 330,< 330,< 100,"O=C(NO)c1cnc(N2CC3C(C2)C3NCc2ccc(-c3ccccc3)cc2)nc1 (stereo not shown) [Example 27, N-Hydroxy 2-{6-[(biphenyl-4-ylmethyl)-amino]-3-aza-bicyclo[3.1.0]hex-3-yl}pyrimidine-5-carboxamide]",< 330
331 to 3300,331 to 3300,< 100,"O=C(NO)c1cnc(N2CC3C(CNCc4ccccc4)C3C2)nc1 (stereo not shown) [Example 72, N-Hydroxy 2-{6-[(benzylamino)methyl]-3-azabicyclo[3.1.0]hex-3-yl}pyrimidine-5-carboxamide]",< 330
< 330,< 330,< 100,"O=C(NO)c1cnc(N2CC3C(C2)C3NCc2ccc(Oc3ccccc3)cc2)nc1 (stereo not shown) [Example 22, N-Hydroxy 2-[6-(4-phenoxybenzylamino)-3-azabicyclo[3.1.0]hex-3-yl]pyrimidine-5-carboxamide]",< 330
< 330,< 330,< 100,"O=C(NO)c1cnc(N2CC3C(C2)C3NS(=O)(=O)c2ccc3ccccc3c2)nc1 (stereo not shown) [Example 1, N-Hydroxy 2-{6-[(2-naphthylsulfonyl)amino]-3-azabicyclo[3.1.0]hex-3-yl}pyrimidine-5-carboxamide trifluoroacetate]",< 330
< 330,< 330,< 100,"O=C(NO)c1cnc(N2CC3C(C2)C3NCc2ccc(Cl)cc2)nc1 (stereo not shown) [Example 30, N-Hydroxy 2-{6-[(4-chlorobenzyl)amino]-3-azabicyclo[3.1.0]hex-3-yl}pyrimidine-5-carboxamide]",< 330
> 3300,> 3300,< 100,"O=C(NO)c1cnc(N2CC(NS(=O)(=O)c3ccc4ccccc4c3)C2)nc1 [Example 70, N-Hydroxy 2-{3-[(2-naphthylsulfonyl)amino]azetidin-1-yl}pyrimidine-5-carboxamide]",331 to 3300
< 330,< 330,< 100,"CC(CCNC1C2CN(c3ncc(C(=O)NO)cn3)CC21)c1ccccc1 (stereo not shown) [Example 29, N-Hydroxy 2-[6-(3-phenylbutylamino)-3-aza-bicyclo[3.1.0]hex-3-yl]pyrimidine-5-carboxamide]",< 330
< 330,331 to 3300,< 100,"O=C(NO)c1cnc(N2CC3C(C2)C3NCc2ccc(F)cc2)nc1 (stereo not shown) [Example 41, N-Hydroxy 2-{6-[(4-fluorobenzyl)amino]-3-azabicyclo[3.1.0]hex-3-yl}pyrimidine-5-carboxamide]",< 330
331 to 3300,331 to 3300,< 100,"CC(C(=O)NC1C2CN(c3ncc(C(=O)NO)cn3)CC21)c1ccccc1 (stereo not shown) [Example 10, N-Hydroxy 2-{6-[(2-phenylpropanoyl)amino]-3-azabicyclo[3.1.0]hex-3-yl}pyrimidine-5-carboxamide]",331 to 3300
331 to 3300,331 to 3300,< 100,"CN(C1C2CN(c3ncc(C(=O)NO)cn3)CC21)S(=O)(=O)c1ccc2ccccc2c1 (stereo not shown) [Example 45, N-Hydroxy 2-{6-[methyl(naphthalene-2-sulfonyl)-amino]-3-aza-bicyclo[3.1.0]hex-3-yl}pyrimidine-5-carboxamide]",< 330
331 to 3300,331 to 3300,< 100,"O=C(NO)c1cnc(N2CC3C(C2)C3N2CCc3ccccc3C2)nc1 (stereo not shown) [Example 66, N-Hydroxy 2-[6-(3,4-dihydroisoquinolin-2(1H)-yl)-3-azabicyclo[3.1.0]hex-3-yl]pyrimidine-5-carboxamide]",331 to 3300
< 330,< 330,< 100,"O=C(NO)c1cnc(N2CC3C(C2)C3NCc2ccc3ccccc3n2)nc1 (stereo not shown) [Example 43, N-Hydroxy 2-{6-[(quinolin-2-ylmethyl)amino]-3-azabicyclo[3.1.0]hex-3-yl}pyrimidine-5-carboxamide]",< 330
< 330,331 to 3300,< 100,"O=C(NO)c1cnc(N2CC3C(C2)C3NCCC(c2ccccc2)c2ccccc2)nc1 (stereo not shown) [Example 39, N-Hydroxy 2-[6-(3,3-diphenylpropylamino)-3-azabicyclo[3.1.0]hex-3-yl]pyrimidine-5-carboxamide]",< 330
331 to 3300,331 to 3300,< 100,"O=C(NO)c1cnc(N2CC3C(CNCc4ccc5ccccc5c4)C3C2)nc1 (stereo not shown) [Example 71, N-Hydroxy 2-{6-[(naphthalen-2-ylmethylamino)methyl]-3-azabicyclo[3.1.0]hex-3-yl}pyrimidine-5-carboxamide]",< 330
< 330,< 330,< 100,"O=C(NO)c1cnc(N2CC3C(C2)C3NCc2cc(F)cc(F)c2)nc1 (stereo not shown) [Example 28, N-Hydroxy 2-{6-[(3,5-difluorobenzyl)amino]-3-azabicyclo[3.1.0]hex-3-yl}pyrimidine-5-carboxamide]",< 330
< 330,331 to 3300,< 100,"O=C(NO)c1cnc(N2CC3CN(Cc4cc(F)cc(F)c4)CC3C2)nc1 (stereo not shown) [Example 83, N-Hydroxy 2-[5-(3,5-difluorobenzyl)hexahydropyrrolo[3,4-c]pyrrol-2(1H)-yl]pyrimidine-5-carboxamide]",< 330
331 to 3300,< 330,< 100,"CCN(CC)CCN(Cc1ccc2ccccc2c1)C1C2CN(c3ncc(C(=O)NO)cn3)CC21 (stereo not shown) [Example 56, N-Hydroxy 2-{6-[(2-diethylaminoethyl)naphthalen-2-ylmethylamino]-3-azabicyclo[3.1.0]hex-3-yl}pyrimidine-5-carboxamide]",< 330
331 to 3300,331 to 3300,< 100,"O=C(NO)c1cnc(N2CC3C(C2)C3NC(=O)c2ccc3ccccc3c2)nc1 (stereo not shown) [Example 5, N-Hydroxy 2-{6-[(naphthalene-2-carbonyl)amino]-3-aza-bicyclo[3.1.0]hex-3-yl}pyrimidine-5-carboxamide]",< 330
< 330,< 330,< 100,"O=C(NO)c1cnc(N2CC3C(C2)C3Nc2nccc3ccccc23)nc1 (stereo not shown) [Example 68, N-Hydroxy 2-[6-(isoquinolin-1-ylamino)-3-azabicyclo[3.1.0]hex-3-yl]pyrimidine-5-carboxamide]",< 330
